{
  "source": "patent US20240310368A1",
  "about": "“DETECTION KIT FOR CATECHOLAMINES AND METABOLITES THEREOF IN PLASMA/URINE AND DETECTION METHOD THEREOF” (Calibra Scientific, Inc., priority 2023, published 2024)",
  "key": {"[1]": {"test": "Acceleration test of plasma samples with stabilizers (30° C. for 1.5 days, against control plasma stored at −95° C. to −65° C.), LC-MS/MS Area/IS Area", "procedure": "Samples were collected in EDTA-anticoagulant blood collection tubes and then rapidly subjected to […] centrifugation at 2-8° C. to separate plasma. 0.95 mL of the plasma was transferred into centrifuge tubes. After 50 μL of the stabilizer was added for uniform mixing, the plasma samples were stored by refrigeration or freezing.\n• (1) 500 μL of plasma/urine samples to be tested were taken, and 50 μL of the internal standard solution and 500 μL of the buffer solution were sequentially added for vertex mixing to obtain diluted samples. • (2) The magnetic medium composite material suspension was subjected to full vortex treatment to reach a suspension state, and then subsequent operation was performed. • (3) Different reagents were added into wells of a preprocessing plate according to the follow operation: adding 200 μL of the magnetic medium composite material suspension in column 1, adding 500 μL of the balance solution in column 2, adding 850 μL of the diluted samples in column 3, adding 500 μL of the balance solution in column 4, adding 200 μL of a rinsing solution in column 5, and adding 100 μL of the elution solution in column 6. • (4) An extraction operation procedure was carried out, as shown in Table 5.\nEach group of the plasma samples were stored at 30° C. for 1.5 days, and plasma without addition of any compounds stored at −95° C. to −65° C. was used as a control. […] The stabilizing effect of the single-component stabilizers on the plasma samples was investigated.\nThe stabilizers were mixed with plasma (the volume ratio of the stabilizers to plasma samples was 1:19), and high concentration plasma samples and low concentration plasma samples were prepared by the method provided in Example 1.\nWith plasma stored at −95° C. to −65° C. as a control, the above plasma samples were separately stored at 30° C. for 1.5 days to investigate the stability. […]"}, "[2]": {"test": "pH adjustment ability of urine diluents to standard products and urine samples (pH test papers)", "assay_type": "physicochemical, human", "settings": "20 μL urine + 480 μL diluent + 50 μL internal standard solution + 500 μL buffer solution", "procedure": "In the present example, standard products of catecholamines in urine and urine samples from different sources (Sample 1 to Sample 6 are urine samples with different pH values) were selected to carry out an experiment. The urine samples were collected within 24 h by the method provided in Example 1, 20 μL of the urine samples were taken, 480 μL of urine diluents shown in Table 30 were added, respectively, then vortex mixing was performed, and 50 μL of an internal standard solution and 500 μL of a buffer solution were sequentially added to obtain urine samples to be tested. Then, pH test papers were used to detect whether the urine samples to be tested were neutral. The pH adjustment ability of different urine diluents to standard products and samples was investigated.\nHowever, some samples are still acidic or alkaline. Thus, ammonium acetate was added on the basis of the formic acid, and different proportions of the formic acid and the ammonium acetate were investigated."}},
  "data": [
    {"smiles": "O=CO", "note": "[formic acid]", "values": [
      {"measurement": "Ratio (Area/IS Area) E", "setting": "[1]; plasma at a high concentration level, plasma containing 0.5% of the acid, control plasma 0.624", "value": 0.295},
      {"measurement": "Ratio (Area/IS Area) NE", "setting": "[1]; plasma at a high concentration level, plasma containing 0.5% of the acid, control plasma 1.522", "value": 0},
      {"measurement": "Ratio (Area/IS Area) DA", "setting": "[1]; plasma at a high concentration level, plasma containing 0.5% of the acid, control plasma 2.27", "value": 0},
      {"measurement": "Ratio (Area/IS Area) E", "setting": "[1]; plasma at a high concentration level, plasma containing 2.0% of the acid, control plasma 0.624", "value": 0},
      {"measurement": "Ratio (Area/IS Area) NE", "setting": "[1]; plasma at a high concentration level, plasma containing 2.0% of the acid, control plasma 1.522", "value": 0},
      {"measurement": "Ratio (Area/IS Area) DA", "setting": "[1]; plasma at a high concentration level, plasma containing 2.0% of the acid, control plasma 2.27", "value": 0},
      {"measurement": "Ratio (Area/IS Area) E", "setting": "[1]; plasma at a low concentration level, plasma containing 0.5% of the acid, control plasma 0.079", "value": 0},
      {"measurement": "Ratio (Area/IS Area) NE", "setting": "[1]; plasma at a low concentration level, plasma containing 0.5% of the acid, control plasma 0.219", "value": 0},
      {"measurement": "Ratio (Area/IS Area) DA", "setting": "[1]; plasma at a low concentration level, plasma containing 0.5% of the acid, control plasma 0.233", "value": 0},
      {"measurement": "Ratio (Area/IS Area) E", "setting": "[1]; plasma at a low concentration level, plasma containing 2.0% of the acid, control plasma 0.079", "value": 0},
      {"measurement": "Ratio (Area/IS Area) NE", "setting": "[1]; plasma at a low concentration level, plasma containing 2.0% of the acid, control plasma 0.219", "value": 0},
      {"measurement": "Ratio (Area/IS Area) DA", "setting": "[1]; plasma at a low concentration level, plasma containing 2.0% of the acid, control plasma 0.233", "value": 0},
      {"measurement": "stabilizing effect on catecholamines in plasma", "setting": "[1]; single components as stabilizers", "value": "no obvious stabilizing effect"},
      {"measurement": "pH adjustment ability of urine diluent to standard products and samples", "setting": "[2]", "value": "uniformly adjust most of samples to neutral"}
    ]}
  ]
}
